According to paper PMC6688371, “Effect of the inhaled PDE4 inhibitor CHF6001 on biomarkers of inflammation in COPD” (Respiratory Research, 2019):

Assays:
patients with COPD = experiment: Forced oscillometry; assay type: in vivo, human; details: for Difference in inspiratory resistance (5-19Hz), adjusted mean difference vs placebo (95% CI) / Expiratory reactance (5 Hz), adjusted mean difference vs placebo (95% CI) / Expiratory resistance (5 Hz), adjusted mean difference vs placebo (95% CI) / Expiratory resistance (19 Hz), adjusted mean difference vs placebo (95% CI) / Inspiratory reactance (5 Hz), adjusted mean difference vs placebo (95% CI) / Inspiratory resistance (5 Hz), adjusted mean difference vs placebo (95% CI) / Inspiratory resistance (19 Hz), adjusted mean difference vs placebo (95% CI) / Percentage flow limited breaths, adjusted mean difference vs placebo (95% CI) / Tidal expiratory flow limitation, adjusted mean difference vs placebo (95% CI) / Total reactance (5 Hz), adjusted mean difference vs placebo (95% CI) / Total resistance (5 Hz), adjusted mean difference vs placebo (95% CI) / Total resistance (19 Hz), adjusted mean difference vs placebo (95% CI): change from baseline to Day 32
Experimental: Induced sputum was collected pre-dose on Day 1 of each treatment period (for the first treatment period, the sample could be collected up to 10 days prior to Day 1), and 2 h post-dose on Days 20, 26 and 32 (see the Additional file 1 for further detail on sputum and blood analysis methods). Blood samples were taken pre-dose on Day 1, and pre-dose and at 30 min, and 1, 1.5, 2, 3, 4, 6, 8 and 12 h post-dose on Day 32. Other pre-dose assessments on Days 1 and 32 were spirometry (forced expiratory volume in 1 s [FEV1] and forced vital capacity [FVC]), forced oscillometry, and COPD Assessment Test (CAT), with Baseline Dyspnea Index recorded on Day 1 and Transition Dyspnea Index (TDI) on Day 32. Central and peripheral airways mechanics were assessed using forced oscillometry, with the following values determined: inspiratory and expiratory resistance (at 5 and 19 Hz), inspiratory and expiratory reactance, tidal expiratory flow limitation and the percentage of flow limited breaths.
The mean changes from baseline to Day 32 for lung function, CAT and TDI were analysed using similar methodology to sputum biomarkers, but were not log-transformed. […] The sputum concentration of CHF6001 was also evaluated at 2 h post-dose, using the mean of all values measured on Days 20, 26 and 32. Pharmacokinetic variables were summarised using geometric means and coefficients of variation, except for Tmax,ss, which is presented as median (range).

TNFα = experiment: Ex-vivo lipopolysaccharide (LPS) stimulated TNFα in whole blood; set-up: species or system human; details: Day 32, geometric mean (%CV)
From the text: A patient had to have a minimum of one acceptable sputum sample on Day 20, 26 or 32 to be included in the sputum biomarker evaluation for that treatment period, with the available cell count and biomarker data averaged for each patient. The mean change from baseline (pre-dose on Day 1 of each treatment period) was then compared between treatments using an analysis of covariance (ANCOVA) that included treatment, patient and period as fixed effects, and baseline values as covariate. The mean change from baseline to Day 32 for biomarkers in blood were analysed using the same model as for sputum data. All data were log-transformed before analysis, and the results are presented as ratio of geometric means. […]
Approximately 80 to 100 cells were to be counted per square , with the number of live leukocytes, dead leukocytes and squamous cells counted. […]
Only one of the sputum samples induced at 2 h post-dose on Days 20, 26 or 32 was used to evaluate CHF6001 concentration, with the evaluation performed only if a minimum of 300 mg of residual sputum remained. […] The concentration of CHF6001 was evaluated using a LC-MS/MS method following solid phase extraction. […]
The levels of inflammatory biomarkers were evaluated from blood collected at 2 h post-dose […]
Levels of biomarkers were assessed as follows: […]
• Serum SP-D: Sandwich Immunoassay, using PheraSTAR Plate Reader . […]

CS(=O)(=O)Nc1ccc(C(=O)O[C@@H](Cc2c(Cl)c[n+]([O-])cc2Cl)c2ccc(OC(F)F)c(OCC3CC3)c2)cc1OCC1CC1 [CHF6001]
Difference in inspiratory resistance (5-19Hz), adjusted mean difference vs placebo (95% CI) (patients with COPD; 800 µg BID): –0.09 (–0.32 to 0.13) cmH2O/(L/s) | Expiratory reactance (5 Hz), adjusted mean difference vs placebo (95% CI) (patients with COPD; 800 µg BID): 0.14 (–0.49 to 0.77) cmH2O/(L/s) | Expiratory resistance (5 Hz), adjusted mean difference vs placebo (95% CI) (patients with COPD; 800 µg BID): –0.15 (–0.45 to 0.15) cmH2O/(L/s) | Expiratory resistance (19 Hz), adjusted mean difference vs placebo (95% CI) (patients with COPD; 800 µg BID): –0.04 (–0.23 to 0.15) cmH2O/(L/s) | Inspiratory reactance (5 Hz), adjusted mean difference vs placebo (95% CI) (patients with COPD; 800 µg BID): 0.18 (0.00 to 0.36) cmH2O/(L/s) | Inspiratory resistance (5 Hz), adjusted mean difference vs placebo (95% CI) (patients with COPD; 800 µg BID): –0.07 (–0.33 to 0.20) cmH2O/(L/s) | Inspiratory resistance (19 Hz), adjusted mean difference vs placebo (95% CI) (patients with COPD; 800 µg BID): 0.06 (–0.12 to 0.24) cmH2O/(L/s) | Percentage flow limited breaths, adjusted mean difference vs placebo (95% CI) (patients with COPD; 800 µg BID): 0.95 (–8.51 to 10.41) | Tidal expiratory flow limitation, adjusted mean difference vs placebo (95% CI) (patients with COPD; 800 µg BID): 0.03 (–0.56 to 0.63) | Total reactance (5 Hz), adjusted mean difference vs placebo (95% CI) (patients with COPD; 800 µg BID): 0.13 (–0.30 to 0.56) cmH2O/(L/s) | Total resistance (5 Hz), adjusted mean difference vs placebo (95% CI) (patients with COPD; 800 µg BID): –0.13 (–0.39 to 0.13) cmH2O/(L/s) | Total resistance (19 Hz), adjusted mean difference vs placebo (95% CI) (patients with COPD; 800 µg BID): –0.00 (–0.18 to 0.17) cmH2O/(L/s) | Difference in inspiratory resistance (5-19Hz), adjusted mean difference vs placebo (95% CI) (patients with COPD; 1600 µg BID): 0.05 (–0.18 to 0.27) cmH2O/(L/s) | Expiratory reactance (5 Hz), adjusted mean difference vs placebo (95% CI) (patients with COPD; 1600 µg BID): 0.082 (–0.55 to 0.72) cmH2O/(L/s) | Expiratory resistance (5 Hz), adjusted mean difference vs placebo (95% CI) (patients with COPD; 1600 µg BID): 0.21 (–0.09 to 0.52) cmH2O/(L/s) | Expiratory resistance (19 Hz), adjusted mean difference vs placebo (95% CI) (patients with COPD; 1600 µg BID): 0.14 (–0.05 to 0.33) cmH2O/(L/s) | Inspiratory reactance (5 Hz), adjusted mean difference vs placebo (95% CI) (patients with COPD; 1600 µg BID): 0.14 (–0.04 to 0.32) cmH2O/(L/s) | Inspiratory resistance (5 Hz), adjusted mean difference vs placebo (95% CI) (patients with COPD; 1600 µg BID): 0.23 (–0.03 to 0.50) cmH2O/(L/s) | Inspiratory resistance (19 Hz), adjusted mean difference vs placebo (95% CI) (patients with COPD; 1600 µg BID): 0.17 (–0.01 to 0.35) cmH2O/(L/s) | Percentage flow limited breaths, adjusted mean difference vs placebo (95% CI) (patients with COPD; 1600 µg BID): –2.06 (–11.66 to 7.53) | Tidal expiratory flow limitation, adjusted mean difference vs placebo (95% CI) (patients with COPD; 1600 µg BID): 0.05 (–0.55 to 0.65) | Total reactance (5 Hz), adjusted mean difference vs placebo (95% CI) (patients with COPD; 1600 µg BID): 0.03 (–0.41 to 0.47) cmH2O/(L/s) | Total resistance (5 Hz), adjusted mean difference vs placebo (95% CI) (patients with COPD; 1600 µg BID): 0.22 (–0.04 to 0.49) cmH2O/(L/s) | Total resistance (19 Hz), adjusted mean difference vs placebo (95% CI) (patients with COPD; 1600 µg BID): 0.15 (–0.03 to 0.32) cmH2O/(L/s) | Oscillometry parameters vs placebo (patients with COPD; either dose (800 or 1600 μg BID)): no consistent treatment–placebo differences | Tumour necrosis factor α ex-vivo, post-baseline (TNFα; 800 µg BID): 2096.916 (177.0) pg/mL | Tumour necrosis factor α ex-vivo, post-baseline (TNFα; 1600 µg BID): 1750.418 (192.0) pg/mL
